Values joined by “and” are separate entries in the source; they are usually repeats but may differ in a detail not shown here. Identical values can stand only once.
Columns and labels:
anesthetized dogs = test: Cardiovascular safety in anesthetized dogs, escalating 15-minute IV infusions (hemodynamics, histamine, ECG); type: in vivo, dog
Description: (§1) Dogs were administered morphine (2 mg/kg subcutaneously) approximately 10-19 minutes prior to administration of anesthesia. Dogs were anesthetized with 1% α-chloralose (100 mg/kg intravenous), followed by a constant infusion of α-chloralose (35-75 mg/kg/hr, IV). Two healthy female dogs were administered escalating doses of sulcardine sulfate intravenously over 15 minutes in an acetate buffer system at dose levels of 10, 30 and 90-mg/kg with dose administrations separated by 60 minutes. Following drug administration, dogs were evaluated for ventricular, pulmonary and peripheral hemodynamic changes using Swanz Ganz and femoral catheters as well as by monitoring of blood oxygen saturation, test article blood level, body temperature, blood biochemistries, hematologies, ECG, and histamine.
as §1, with “90 mg/kg” for “90-mg/kg”, “minutes. Another set of two dogs received test article after pre-treatment with diphenhydramine (1 mg/kg administered 30 minutes prior to start of test article infusion).” for “minutes.”, “biochemistry, hematology,” for “biochemistries, hematologies,”, “histamine levels.” for “histamine.”

[1] = Plasma PK in Beagle dog after oral and IV administration; type: in vivo; set-up: Tmax: unit not given here
Description: In dogs an PO dose of 40 mg/kg (efficacious oral dose range) gives peak levels of 2.1 μg/mL (4.6 μM). […] These PK data and extrapolated conclusion are in agreement with the CV safety study, where PK after 15 minute infusion was conducted. In general, the mean concentrations peaked at the 10-minute time point, post-initiation, for each 15-minute infusion of sulcardine sulfate at 10 and 30 mg/kg (efficacious dose against ventricular arrhythmia). The mean peak plasma concentrations were 1.8 (4.2 μM) and 11.2 μg/mL (24.6 μM), respectively (data not shown). These values were well below in the case of the lower dose to barely reaching some but not all atrial cell patch clamp IC50s on various ion channels, although still associated with significant drops in mean arterial pressure, tachycardia, QT interval prolongation and changes in ventricular contractility were observed.

[2] = Plasma concentration in minipig cardiovascular safety study; type: in vivo
Description: A Swan Ganz (thermodilution catheter) was inserted into the right femoral vein via phlebotomy and advanced into the pulmonary artery for cardiac output measurements. A catheter was inserted in the left femoral artery via an arteriotomy for blood gas determination. Another catheter was inserted in the left femoral vein for blood collection for toxicokinetic evaluation. Finally, an incision was also performed on the left side of the neck to expose the left carotid artery and an electronic dual pressure sensor catheter (Millar) was placed via arteriotomy and advanced into the left ventricle. The catheter was positioned to simultaneously collect left ventricle blood pressure measurements as well as aortic pressure. In addition, a temporary catheter was placed in any of the cephalic veins for administration of Lactated Ringers at 10 mL/kg/hr throughout the course of the experiment.
Following surgical preparation, hemodynamic and electrocardiographic parameters were allowed to stabilize for at least 15 minutes. The vehicle control and test article were then administered, and hemodynamic, electrocardiographic, histamine and PK parameters were monitored.
Peak plasma concentrations of sulcardine sulfate increased with increasing dose. […]

post-MI beagle dogs = test: Hemodynamic effects in anesthetized post-MI sudden cardiac death model; type: in vivo, beagle dog; conditions: 15 mg/kg
Description: A hemodynamic effects study of sulcardine sulfate in an anesthetized post-MI sudden cardiac death model study was also performed. The study population consisted of ten purpose-bred, female beagle dogs, weighing 10.0-12.0 Kg. The animals had left ventricular wall ischemic injury induced by a 90-minute occlusion of the left anterior descending coronary artery followed by reperfusion. Five animals were treated with sulcardine sulfate (15 mg/kg) infused intravenously over 10 minutes, and the remaining five animals were vehicle dogs treated with 0.9% sodium chloride solution (placebo). Lowest mean arterial blood pressure was measured every 15 minutes for a total period of 120 minutes after treatment.

[3] = Plasma PK in Beagle dog after oral and IV administration; type: in vivo; set-up: AUC / CLs / Tmax / V/F (c): unit not given here; Cmax: unit: μg/mL

With sulcardine sulfate the “mean arterial pressure initial increase” value (anesthetized dogs; 10 mg/kg, one animal out of two, maximum at 10 minutes post start of dosing) was “+66%”, the QTc prolongation (anesthetized dogs; 10 mg/kg, within 5 minutes of initiation) was ≤ 20 ms and the “maximum histamine plasma concentration” value (anesthetized dogs; 10 mg/kg, at 5 min and 10 min post-Rx respectively) was 1874 nM and 1919 nM. For the same substance, the “maximum histamine plasma concentration” value (anesthetized dogs; 30 mg/kg) was 251 nM and 183 nM, the QTc prolongation (anesthetized dogs; 30 mg/kg infusion, cumulative) was “approximately 35 msec” and the “maximum histamine plasma concentration” value (anesthetized dogs; 90 mg/kg) was 99 nM and 64 nM. For the same substance, the mortality (anesthetized dogs; 90 mg/kg, final 15-minute infusion) was “all animals succumbed”, the QRS widening (anesthetized dogs; all dose levels (10, 30, 90 mg/kg)) was “QRS widening was also noted at all dose levels” and the K10 ([1]; 40 mg/kg po) was 0.1748 ± 0.0306 h⁻¹. For the same substance, the Tmax ([1]; 40 mg/kg po) was 1.508 ± 0.4160, the peak levels ([1]; dogs, PO 40 mg/kg, 40 mg/kg) was 2.1 μg/mL and 4.6 μM and the “mean peak plasma concentration” value ([2]; 90 mg/kg, 15 minute infusion) was 25.6 ug/mL and 56.3 μM. For the same substance, the Cmax ([2]; minipigs, read-out: Cmax that led to observed side effects such as hypotension) was 13.6 µM, the “time after completion of infusion by which arterial blood pressure was not different from baseline or placebo” value (post-MI beagle dogs) was ≤ 50 min and the “mean arterial blood pressure compared to baseline values” (post-MI beagle dogs; at fifteen, thirty, and forty-five minutes after completing a 10 minute infusion, P<0.05) was “significantly lower”. It also gave an AUC ([3]; 8 mg/kg fast i.v push) of 4.750 ± 1.778, a CLs ([3]; 8 mg/kg fast i.v push) of 1.850 ± 0.5911 and a K10 ([3]; 8 mg/kg fast i.v push) of 0.7378 ± 0.2645 h⁻¹. It also gave a K12 ([3]; 8 mg/kg fast i.v push) of 1.982 ± 1.157 h⁻¹, a K21 ([3]; 8 mg/kg fast i.v push) of 0.5196 ± 0.3149 h⁻¹ and a T1/2α ([3]; 8 mg/kg fast i.v push) of 0.2898 ± 0.2041 h. For the same substance, the T1/2β ([3]; 8 mg/kg fast i.v push) was 6.107 ± 1.537 h, the “V/F (c)” value ([3]; 8 mg/kg fast i.v push) was 2.815 ± 1.714 and the AUC ([3]; 40 mg/kg po) was 19.57 ± 2.414. For the same substance, the CLs ([3]; 40 mg/kg po) was 2.065 ± 0.2283, the Cmax ([3]; 40 mg/kg po) was 2.121 ± 0.4025 and the K12 ([3]; 40 mg/kg po) was 0.1806 ± 0.0817 h⁻¹. It also gave a K21 ([3]; 40 mg/kg po) of 0.1778 ± 0.1295 h⁻¹, a T1/2Ka ([3]; 40 mg/kg po) of 33.98 ± 10.12 min and a T1/2α ([3]; 40 mg/kg po) of 1.636 ± 0.6148 h. The T1/2β ([3]; 40 mg/kg po) was 12.21 ± 3.412 h, the “V/F (c)” value ([3]; 40 mg/kg po) was 12.08 ± 2.621 and the AUC ([3]; 80 mg/kg po) was 83.53 ± 21.27. For the same substance, the CLs ([3]; 80 mg/kg po) was 1.013 ± 0.2956, the Cmax ([3]; 80 mg/kg po) was 8.849 ± 1.789 and the K10 ([3]; 80 mg/kg po) was 0.1166 ± 0.0731 h⁻¹. The K12 ([3]; 80 mg/kg po) was -8.226 ± 16.60 h⁻¹, the K21 ([3]; 80 mg/kg po) was 10.10 ± 19.85 h⁻¹ and the T1/2Ka ([3]; 80 mg/kg po) was 22.09 ± 14.66 min. For the same substance, the T1/2α ([3]; 80 mg/kg po) was 1.670 ± 1.068 h, the T1/2β ([3]; 80 mg/kg po) was 8.631 ± 2.294 h and the Tmax ([3]; 80 mg/kg po) was 1.407 ± 0.6461. The “V/F (c)” value ([3]; 80 mg/kg po) was 16.60 ± 18.60, the AUC ([3]; 160 mg/kg po) was 291.6 ± 29.13 and the CLs ([3]; 160 mg/kg po) was 0.5527 ± 0.0533. The Cmax ([3]; 160 mg/kg po) was 19.10 ± 3.412, the K10 ([3]; 160 mg/kg po) was 0.0856 ± 0.0155 h⁻¹ and the K12 ([3]; 160 mg/kg po) was -0.0620 ± 0.1371 h⁻¹. For the same substance, the K21 ([3]; 160 mg/kg po) was 1.474 ± 1.562 h⁻¹, the T1/2Ka ([3]; 160 mg/kg po) was 49.54 ± 31.7 min and the T1/2α ([3]; 160 mg/kg po) was 1.758 ± 1.790 h. For the same substance, the T1/2β ([3]; 160 mg/kg po) was 9.640 ± 1.532 h, the Tmax ([3]; 160 mg/kg po) was 2.700 ± 1.001 and the “V/F (c)” value ([3]; 160 mg/kg po) was 6.528 ± 0.6551. For the same substance, the “Cmax read from PK curve” value ([3]; dogs, IV 8 mg/kg) was “about 10 μg/mL”.

— patent US8541464B2, “Treatment of atrial fibrillation” (HUYA Biosciences International LLC, priority 2009, dated 2013)
